Structures can show the parent of a compound that is named as a salt.

Here are results for three compounds from patent publication US4001237A, “Oxazole, isoxazole, thiazole and isothiazole amides” (priority 1976, dated 1977).

Assay [1] can be described thus: Clinical use as antihypertensive agent in humans (literature reports). It counts as in vivo, human. Conditions: clinical daily dose ranges 150 to 500 mg. versus 1.5 to 15 mg.
The test system of assay [2] is spontaneous hypertensive rats. Kind of assay: Antihypertensive activity by oral administration to spontaneous hypertensive rats. It counts as in vivo, rat. The following applies: Rattus norvegicus, oral, spontaneous hypertensive rats, read-out: Antihypertensive Activity % Blood Pressure Change. How it is done: (§1) In the following table, antihypertensive acitvity was determined by oral administration to spontaneous hypertensive rats, and the in vitro and in vivo α-adrenergic receptor blocking effect was determined by tests described following the table. In the in vitro test, the inhibition by the test drug of norepinephrine induced contractions of rat seminal vesicles was measured; and in the in vivo test, the inhibition by the test drug of norepinephrine induced pressor responses in anesthetized dogs was measured.

The target in assay [3] is T1, α-adrenergic receptor (Rattus norvegicus, UniProt P43140).
T1 construct: Seminal vesicles were removed and transfered to a shallow dish containing modified Tyrode's solution; from tissue; host or cells: isolated seminal vesicle of male Long Evans rats
T1 sequence (P43140 1-466): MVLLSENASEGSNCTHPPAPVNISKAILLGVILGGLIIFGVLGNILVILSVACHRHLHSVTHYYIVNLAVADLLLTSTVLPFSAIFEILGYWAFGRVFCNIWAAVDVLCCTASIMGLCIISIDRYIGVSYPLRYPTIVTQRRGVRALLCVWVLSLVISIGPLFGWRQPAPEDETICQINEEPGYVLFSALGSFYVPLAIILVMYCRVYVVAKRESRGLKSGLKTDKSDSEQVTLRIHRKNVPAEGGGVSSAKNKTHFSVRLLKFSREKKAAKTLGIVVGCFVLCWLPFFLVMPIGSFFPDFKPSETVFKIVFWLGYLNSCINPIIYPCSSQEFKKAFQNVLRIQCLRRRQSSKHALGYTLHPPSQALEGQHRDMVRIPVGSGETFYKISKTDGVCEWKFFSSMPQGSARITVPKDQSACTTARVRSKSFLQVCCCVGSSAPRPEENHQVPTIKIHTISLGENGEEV
Kind of assay: Isolated rat seminal vesicle assay: inhibition of norepinephrine induced contractions. It counts as cell-based. The following applies: relative to prazosin; test compound 10 nanograms/ml; shift of norepinephrine ED50, rat seminal vesicle. The method, then:
as §1
Dangan et al., Int. j. […] Lietch et al., Brit.
Male Long Evans rats weighing approximately 300 g. were sacrificed by a sharp blow on the head. Seminal vesicles were removed and transfered to a shallow dish containing modified Tyrode's solution. The vesicles were emptied of their contents by squeezing them gently with a pair of forceps. Silk thread (4-0) was attached to both ends of the vesicle and it was suspended in a 20 ml. muscle chamber containing modified oxygenated Tyrode's solution (g./liter: NaCl 8, KCl 0.2, CaCl2 0.26, NaHCO3 1, Na2 HPO4 0.575, glucose 0.5 and MgCl2 0.02). The bathing fluid was maintained at 37° C. with a thermostatically controlled isolated organ tissue bath. Contractions were recorded isometrically by means of a force displacement transducer and recordings were made with a Beckman RP Dynograph. Norepinephrine (NE) was added to the muscle chamber in volumes ranging from 0.1 to 0.4 ml. with a 1 ml. syringe attached to a 3 inch 20 gauge needle. NE and test compounds were dissolved in deionized water.
NE dose response curves were obtained alone and in the presence of test compounds. NE was allowed to remain in contact with the strip until a maximal contraction was obtained. The strip was then washed with the perfusion fluid for 15-30 seconds and the preparation was allowed to return to base line before a subsequent dose of NE was given. Increasing amounts of NE were injected into the bath in the same manner until a complete dose response was obtained.
The seminal vesicles used to obtain the control NE dose response were discarded and new preparations were placed in the tissue bath for evaluation of the test compound. The test compound was added directly to the perfusion fluid (10 nanograms/ml.) and the strips were allowed to remain in contact with the bathing media for at least 10 minutes before the NE dose response was determined. Seminal vesicles from the same rat were used for control and for test drug.
ED50 values for NE were obtained by regression analysis as described by Finney, Probit, Analysis, 2d Ed., Cambridge (1964). A minimum of 4 strips and at least 4 doses were employed to calculate the regression lines. The ED50 value is defined as the concentration of NE which produces a contraction equal to 50% of the maximal contraction.

In assay [4] the test system is α-adrenergic receptor. In words: Anesthetized dog assay for α-adrenergic blocking agents: inhibition of norepinephrine induced pressor responses. In kind it is in vivo. The following applies: relative to prazosin; test drug 3 mg./kg. iv; norepinephrine dose raising blood pressure by 50 mm. of Hg; anesthetized dogs. How it is done: as §1
Thus, blood pressure responses to norepinephrine (NE) in anesthetized dogs was used as a comparative assay for α-adrenergic receptor blocking properties of drugs.
Experiments were done on mongrel dogs anesthetized with sodium pentobarbital, 30 mg./kg. iv. The left femoral artery was cannulated to record aortic blood pressure and a femoral vein was cannulated for administration of drugs. All animals underwent a bilateral vagotomy. A norepinephrine dose-response curve was obtained by administering increasing doses of iv norepinephrine (0.01 - 1 μg./kg.). The test drug was then administered iv at 3 mg./kg. Approximately 30 minutes later a dose-response curve was again established for iv norepinephrine (0.01-10 μg./kg.).

For `COc1cc2c(N)nc(N3CCN(C(=O)OCC(C)(C)O)CC3)nc2c(OC)c1OC` [Trimazosin], the “weaker than prazosin at the lower end of the clinical daily dosage range” value in assay [1] was 100 fold.
Take `COc1cc2nc(N3CCN(C(=O)c4ccno4)CC3)nc(N)c2cc1OC` [Example 1, 4-Amino-6,7-dimethyoxy-2-[4-(isoxazole-5-carbonyl)-piperazine-1-yl]quinazoline Hydrochloride]: in assay [2], the change in vivo at 1 mg/kg is -15%, the change in vivo at 3 mg/kg is -26% and the change in vivo at 10 mg/kg was -35%. Further, the “α-Adrenergic Receptor Blocking Effect In Vitro Activity Ratio” value on α-adrenergic receptor [3] is 0.11. Further, the “α-Adrenergic Receptor Blocking Effect In Vivo Activity Ratio” value with α-adrenergic receptor [4] is 0.18.
The like results for `COc1cc2nc(N3CCN(C(=O)c4cnc(C)s4)CC3)nc(N)c2cc1OC` [Example 15, 4-Amino-6,7-dimethyoxy-2-[4-(2-methylthiazole-5-carbonyl)piperazin-1-yl]quinazoline Hydrochloride] were, in that order, -20%, -25%, -37%, 0.19 and 0.09.
